# Reference: patent US7112590B2, “Thrombin inhibitors” (LEK Pharmaceuticals d.d., priority 2000, dated 2006)
# Legend:
# Assay type in all cases: biochemical
# human thrombin = target: T1, human thrombin (Homo sapiens, UniProt P00734); experiment: Determination of thrombin Ki (chromogenic substrate S-2238); settings: for Ki: human thrombin, substrate S-2238, pH 7.5, 25° C.; for Ki trypsin/ Ki thrombin: selectivity: ratio of Ki for trypsin to Ki for thrombin
# T1 construct: Human thrombin (308 NIH; Sigma); purchased Sigma
# Experimental: (§1) The enzyme inhibitory effect of the compounds can be identified by determination of inhibition constant Ki. It denotes the degree of dissociation of the enzyme-inhibitor complex. Low dissociation constant means high potency of inhibitor. Ki can be determined during reaction of the enzyme with a specific chromogenic substrate which under hydrolysis by the enzyme develops color. Reaction in time is recorded by spectrophotometry and Ki is calculated from kinetic parameters (Vmax, Km, reaction rate).
# 1. Determination of Thrombin Ki
# The ability of a compound to act as an inhibitor of human thrombin catalytic activity was assessed by determination of Ki.
# (§2) Buffer: HBSA, pH 7.5 (10 mM Hepes, 150 mM NaCl, 0.1% w/v bovine serum albumin)
# Substrate (S-2238: H-D-Phe-Pip-Arg-pNA HCl, 25 mg; Chromogenix): dissolved in distilled water to 1 mM concentration.
# Human thrombin (308 NIH; Sigma): dissolved in saline to give a stock solution of 20 NIH/mL.
# Inhibitors: were dissolved in DMSO (10 mM stock solution) and diluted with distilled water to working solutions (the highest final concentration of DMSO was 3%).
# A mixture of 50 μL of buffer, 50 μL of inhibitor in water (final concentrations from 10 to 100 μM) and 50 μL of thrombin (0.5 NIH U/mL f.c.) was incubated for 15 minutes at room temperature. The reaction was started with 50 μL of S-2238 (20 μM or 40 μM f.c.) and the absorbance of each sample at 405 nm (at 25° C.) was measured in triplicate every 10 seconds for a period of 15 minutes using a microtiter plate reader (Tecan Sunrise).
# (§3) Thrombin activity was determined from the change in absorbance in the linear part of the velocity graph. Ki was calculated according to Cheng and Prussof (Biochem Pharmacol, 1973) where Ki is IC50/(1+S/Km). The Km for the substrate was determined under the test conditions with at least 6 substrate concentrations varying around Km and calculated with the non-linear regression programme Curve expert.
# 3. Selectivity to Thrombin
# By the use of other serine protease like trypsin with the appropriate chromogenic substrate, selectivity of inhibitors with respect to thrombin was determined. Selectivity of an inhibitor is expressed as a ratio of Ki for trypsin to Ki for thrombin.
# [1] = tested on: normal pooled human plasma; experiment: Activated partial thromboplastin time (aPTT) coagulation assay; settings: concentration of inhibitor that doubled the clotting time
# Experimental: (§4) The Anticoagulant effect of thrombin inhibitors was measured by thrombin time (TT), activated partial thromboplastin time (aPTT), and prothrombin time (PT) assays. Inhibitors were added to normal pooled human plasma over a range of concentrations and clotting was recorded in an automated coagulometer (Fibrintimer, Dade/Behring). The concentration of inhibitor that doubled the clotting time was determined for each assay.
# 2. Activated Partial Thromboplastin Time (aPTT)
# Incubation of plasma with the optimal quantity of phospholipids and a surface activator leads to activation of factors of the intrinsic coagulation pathway. The addition of calcium ions triggers the coagulation process. The time of fibrin clot formation wass measured. aPTT was used as a screening test for coagulation disorders of the intrinsic coagulation pathway. It is prolonged due to intrinsic coagulation factors deficit or due to the presence of inhibitors.
# Pathromtin SL (Dade/Behring): silicon dioxide particles, vegetable phospholipids, sodium chloride (2.4 g/L), Hepes (14.3 g/L, pH 7.6), sodium azide (<1 g/L). The reagent was used at room temperature (15–25° C.).
# Calcium chloride solution: 0.025 mol/L, warmed to 37° C.
# (§5) Normal pooled plasma: venous blood from 11 apparently healthy volunteers was collected (1 part 0.11 mol/L sodium citrate solution with 9 parts of blood) and centrifuged immediately at 2000×g for 30 minutes at 4° C. Plasma was removed, pooled and stored in aliquots at −70° C. until use.
# (§6) Inhibitors: were dissolved in DMSO (10 mM stock solution) and diluted with distilled water to working solutions (the highest concentration 100 μM).
# Inhibitor (10 μL working solution, concentrations from 5 μM to 100 μM) and pooled plasma (90 μL) were incubated at 37° C. for 5 minutes. Pathromtin (100 μL) was added and the sample was incubated for another 2 minutes at 37° C. The addition of calcium chloride (100 μL) triggered the coagulation process and clot formation was detected with a coagulometer in duplicate.
# [2] = tested on: normal pooled human plasma; experiment: Prothrombin time (PT) coagulation assay; settings: concentration of inhibitor that doubled the clotting time
# Experimental: as §4
# An optimal amount of thromboplastin and calcium are added to plasma sample and the time of fibrin clot formation wass measured. PT is a rapid, sensitive screening test for coagulation disorders of the extrinsic pathway. It is well suited for the induction and monitoring of oral anticoagulant therapy, for diagnosing genetic or acquired deficiencies in coagulation factors and checking the synthesis performance of the liver in hepatic diseases. PT is prolonged due to extrinsic coagulation factors deficit or due to the presence of inhibitors.
# Thromboplastin (Thromborel S, Dade/Behring): was dissolved in 4 mL of distilled water. Reagent was at 37° C. prior to use at least 30 minutes.
# as §5, §6
# Inhibitor (10 μL working solution, concentrations from 5 μM to 100 μM) and pooled plasma (90 μL) were incubated at 37° C. for 5 minutes and then Thromborel S (200 μL) was added. Clot formation was measured with a coagulometer in duplicate.
# [3] = tested on: normal pooled human plasma; experiment: Thrombin time (TT) coagulation assay; settings: concentration of inhibitor that doubled the clotting time, bovine thrombin reagent
# Experimental: as §4
# In a plasma sample thrombin converts fibrinogen into fibrin and the clot is formed. The time for clot formation was measured. Thrombin time is prolonged due to disorders in fibrin polymerisation or due to the presence of thrombin inhibitors.
# Thrombin (Test Thrombin Reagent, 1.5 IU/mL, Dade/Behring): lyophilized bovine thrombin was dissolved in 5 mL of HEPES (25 mmol/L, pH 7.4). The reagent was warmed to 37° C. prior to the assay.
# as §5, §6
# Inhibitors (10 μL working solution, concentrations from 2.5 μM to 100 μM) and pooled plasma (90 μL) were incubated at 37° C. for 5 minutes and then thrombin (200 μL) was added. Clot formation was measured in a coagulometer in duplicate.
# trypsin = target: T2, trypsin (UniProt P00760); experiment: Determination of trypsin Ki (chromogenic substrate S-2222); settings: substrate S-2222, pH 7.5, 25° C.
# T2 construct: Trypsin (6000 E/mg prot; Sigma): dissolved in distilled water to give a stock solution of 300 E/mL
# T2 sequence (P00760 1-246): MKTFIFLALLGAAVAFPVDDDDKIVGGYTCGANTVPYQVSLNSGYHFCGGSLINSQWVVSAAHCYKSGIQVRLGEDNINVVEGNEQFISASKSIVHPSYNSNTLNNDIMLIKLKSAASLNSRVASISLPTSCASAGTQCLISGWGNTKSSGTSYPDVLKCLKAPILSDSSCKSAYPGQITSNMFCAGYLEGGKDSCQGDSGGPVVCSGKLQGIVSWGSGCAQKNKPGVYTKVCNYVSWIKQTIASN
# Experimental: as §1
# 2. Determination of Trypsin Ki
# The ability of a compound to act as an inhibitor of trypsin catalytic activity was assessed by determination of Ki.
# as §2
# Substrate (S-2222: N-benzoyl-Ile-Glu-Gly-Arg-pNA HCl, 25 mg; Chromogenix): dissolved in distilled water to 2 mM concentration. (Km is 21 μM)
# Trypsin (6000 E/mg prot.; Sigma): dissolved in distilled water to give a stock solution of 300 E/mL.
# Inhibitors: were dissolved in DMSO (10 mM stock solution) and diluted with distilled water to working solution (the highest final concentration of DMSO was 10%).
# 50 μL of buffer, 50 μL of test compound in water (final concentrations from 50 to 300 μM) and 50 μL of trypsin (3 mE/mL f.c.) were incubated for 15 minutes at room temperature. The reaction was started with 50 μL of S-2222 (50 μM or 100 μM f.c.) and the absorbance of each sample at 405 nm (at 25° C.) was measured in triplicates every 10 seconds for a period of 15 minutes using a microtiter plate reader (Tecan Sunrise).
# as §3, with “Trypsin” for “Thrombin”, “of” for “of the”, “is,” for “is”, “under” for “under the”, “program” for “programme”
Structure (SMILES),Ki (human thrombin),Ki trypsin/ Ki thrombin (human thrombin),Ki (trypsin),aPTT [1],PT [2],TT [3]
O=C(O)CN[C@H](CC1CCCCC1)C(=O)N1CCC[C@H]1C(=O)NCC1CCc2n[nH]cc2C1 (stereo partly drawn),0.28 µM,70.6,19.9 µM,28 µM,55.3 µM,4.9 µM
Nc1nc2c(s1)CC(CNC(=O)[C@@H]1CCCN1C(=O)[C@@H](CC1CCCCC1)NS(=O)(=O)Cc1ccccc1)CC2 (stereo partly drawn) [drawing 95],0.37 µM,107.8,39.9 µM,64 µM,95.3 µM,15.8 µM
Nc1nc2c(s1)CC(NC(=O)[C@@H]1CCCN1C(=O)[C@@H](Cc1ccccc1)NS(=O)(=O)Cc1ccccc1)CC2 (stereo partly drawn) [drawing 96],0.62 µM,>110,> 68.3 µM,332 µM,578 µM,84 µM

# These reach a lower Ki (human thrombin). Values come first.
Ki (human thrombin),Ki trypsin/ Ki thrombin (human thrombin),Ki (trypsin),Structure (SMILES),aPTT [1],PT [2],TT [3]
0.12 µM,>569,> 68.3 µM,Nc1nc2c(s1)CC(NC(=O)[C@@H]1CCCN1C(=O)[C@@H](CC1CCCCC1)NS(=O)(=O)Cc1ccccc1)CC2 (stereo partly drawn) [drawing 91],59 µM,114 µM,15 µM
0.14 µM,1267,177 µM,O=C(NCC1CCc2n[nH]cc2C1)[C@@H]1CCCN1C(=O)[C@@H](CC1CCCCC1)NS(=O)(=O)Cc1ccccc1 (stereo partly drawn) [drawing 92],42.3 µM,78.3 µM,11 µM
